Laboratory results from publication PMC9558053, “Development of a novel high-throughput screen for the identification of new inhibitors of protein S-acylation” (The Journal of Biological Chemistry, 2022).

Target: T1, human zDHHC2 (Homo sapiens, UniProt Q9UIJ5)
T1 construct: expressed in transfected cells; host or cells: HEK293T
T1 sequence (Q9UIJ5 1-367): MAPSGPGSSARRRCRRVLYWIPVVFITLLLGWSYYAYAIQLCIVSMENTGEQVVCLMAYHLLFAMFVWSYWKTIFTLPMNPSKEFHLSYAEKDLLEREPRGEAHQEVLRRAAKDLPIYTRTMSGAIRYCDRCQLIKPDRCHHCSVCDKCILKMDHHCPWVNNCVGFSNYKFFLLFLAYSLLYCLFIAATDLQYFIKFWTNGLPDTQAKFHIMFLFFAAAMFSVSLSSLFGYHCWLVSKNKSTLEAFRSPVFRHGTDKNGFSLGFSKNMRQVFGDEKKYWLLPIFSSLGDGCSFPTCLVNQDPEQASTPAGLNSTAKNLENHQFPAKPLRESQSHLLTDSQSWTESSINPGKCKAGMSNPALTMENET
Test: GFP-SNAP25b S-acylation in HEK293T cells co-expressing zDHHC2, copper-catalyzed click chemistry, Western blot
Assay type: cell-based
Conditions: for inhibition at 25 µM: HEK-293T, compound 25 μM, 4 h preincubation + 4 h labeling, read-out: SNAP25 S-acylation inhibition (%), zDHHC2; for inhibition at 25 µM / zDHHC2-mediated substrate (SNAP25) S-acylation Hill slope / IC50: in cellulo HEK293T; for zDHHC2-mediated substrate (SNAP25) S-acylation Hill slope / IC50: Western blot; for IC50: read-out: zDHHC2-mediated substrate (SNAP25) S-acylation IC50 (95 CI); for GFP-SNAP25 S-acylation in cell-based assays, newly synthesized compounds: resynthesized (UoS) material vs original hits, Supplemental Fig. 2 (zD2, zD3, zD7, zD15, zD17)
Experimental: The inhibitory activity of TTZ-1 and TTZ-2 on cells expressing SNAP25 and zDHHC2 was also examined. Human embryonic kidney 293T (HEK293T) cells were transfected with plasmids encoding GFP-tagged SNAP25b and HA-tagged zDHHC2. Cells were then preincubated for 4 h with either dimethyl sulfoxide (DMSO) as a vehicle control or increasing concentrations of TTZ-1/TTZ-2 (diluted in serum-free medium) before being metabolically labeled for a further 4 h with C16:0-azide. Samples were then lysed and processed by copper-catalyzed click chemistry to reveal the extent of S-acylation.
Figure 5 Activity of TTZ-1 and TTZ-2 against SNAP25 S-acylation by human zDHHC2 expressed in mammalian cells. HEK293T cells were transfected with a plasmid encoding GFP-SNAP25b together with a plasmid encoding human zDHHC2 (+zD2) or a control plasmid pEF-BOS-HA. Cells were preincubated for 4 h with increasing concentrations of TTZ-1 (A) or TTZ-2 (B) or DMSO (as a control) before metabolic labeling with 100 μM C16:0-azide for another 4 h. Cells were lysed, and proteins having incorporated C16:0-azide were labeled by click chemistry with an alkyne-IR800 dye. Protein samples were then resolved by SDS-PAGE and transferred to nitrocellulose membranes that were probed with an anti-GFP antibody (IR680). Representative images are shown for cells treated with TTZ-1 (A) or TTZ-2 (B). Top panels, click chemistry signal (top panel, Click [IR800]) and GFP immunoblot (middle panel, GFP [IR680]). Positions of the molecular mass markers (in kilodalton) are indicated on the right side of the membranes. Bottom panels A and B, data from three independent experiments performed in duplicate were quantified, and the inhibition of GFP-SNAP25b S-acylation was determined as stated in the Experimental procedures section. Graphs show mean ± SEM of inhibition of normalized S-acylation (click signal/GFP signal) in the presence of each compound. Data were analyzed and fit to a nonlinear curve using the log(inhibitor) versus normalized response (variable slope) equation. DMSO, dimethyl sulfoxide; HA, hemagglutinin; HEK293T, human embryonic kidney 293T cell line; TTZ, tetrazole; zDHHC, zinc finger DHHC domain–containing protein.
HEK293T cells were plated on poly-D-lysine–coated 24-well plates (catalog no.: 356413; Corning BioCoat, VWR) and transfected with 2.4 μg of pEF-zDHHC2 plasmid (or the control empty plasmid pEF-BOS-HA) for the measurement of zDHHC2 autoacylation and 4.8 μl of Lipofectamine 2000 (Invitrogen). For substrate acylation, cells were transfected with 1.6 μg of pEF-zDHHC plasmid (or the control empty plasmid pEF-BOS-HA) together with 0.8 μg of EGFP-SNAP25b plasmid and 4.8 μl of Lipofectamine 2000. Twenty-four hours post-transfection, cells were washed once with PBS and preincubated with ONO or UoS compounds diluted in 250 μl of serum-free DMEM for 4 h. S-acylation labeling was then started by the addition of 50 μl of 600 μM of either unmodified palmitic acid C16:0 or C16:0-azide (final concentration of 100 μM) diluted in serum-free DMEM supplemented with 1 mg/ml fatty acid–free BSA (Sigma; catalog no.: A7030). Cells were labeled for 4 h, washed once with PBS, then lysed on ice in 100 μl of 50 mM Tris (pH 8) containing 0.5% SDS and protease inhibitors (Sigma; catalog no.: P8340). Conjugation of IR800 alkyne dye or mPEG5K alkyne to C16:0-azide was carried out for 1 h at room temperature with end-over-end rotation by adding an equal volume of freshly prepared click chemistry reaction mixture containing the following: 5 μM IRDye 800CW alkyne (catalog no.: 929-60002; Li-COR) or 200 μM of mPEG5K-alkyne (catalog no.: JKA3177; Sigma), 4 mM CuSO4 (catalog no.: 451657; Sigma), 400 μM Tris[(1-benzyl-1H-1,2,3-triazol-4-yl)methyl]amine (catalog no.: 678937; Sigma), and 8 mM ascorbic acid (catalog no.: A15613; Alpha Aesar) in distilled water. About 67 μl of 4 × SDS-PAGE sample buffer containing 100 mM DTT was then added to the 200 μl sample. […]

SMILES | inhibition at 25 µM [%] | zDHHC2-mediated substrate (SNAP25) S-acylation Hill slope | IC50 [µM] | GFP-SNAP25 S-acylation in cell-based assays, newly synthesized compounds
O=C(Nc1cccc2c1OC(c1nnn[nH]1)CN2)c1ccc(OCCCCc2ccccc2)cc1 (centres unmarked) [TTZ-2, N-(2-(1H-Tetrazol-5-yl)-3,4-dihydro-2H-benzo[b][1,4]oxazin-8-yl)-4-(4-phenylbutoxy)benzamide] | 84 ± 6 | 4.6 | 18.8 | results comparable to the original hit compounds
CCCCCCCOc1ccc(C(=O)Nc2cccc3c2OC(c2nnn[nH]2)CN3)cc1 (centres unmarked) [TTZ-1, N-(2-(1H-Tetrazol-5-yl)-3,4-dihydro-2H-benzo[b][1,4]oxazin-8-yl)-4-(heptyloxy)benzamide] | 113 ± 5 | 7.6 | 14.4 | results comparable to the original hit compounds
